Tests used:
Rattus norvegicus [1] = organism: Rattus norvegicus; experiment: Displacement of [3H]-Rolipram from phosphodiesterases PDE4 rolipram binding site in rat at 10 uM incubated for 60 mins by radioligand binding assay relative to control
[2] = biological target: Adenosine receptor A3 (Homo sapiens) (UniProt P0DMS8); experiment: Displacement of [125I]AB-MECA from human recombinant adenosine A3 receptor at 10 uM after 120 mins by scintillation counting analysis relative to control
[3] = biological target: Neuropeptide Y receptor type 2 (Homo sapiens) (UniProt P49146); experiment: Displacement of [125I]peptide YY from human Y2 receptor at 10 uM after 120 mins by scintillation counting analysis relative to control
Rattus norvegicus [4] = organism: Rattus norvegicus; experiment: Displacement of [125I]-Triiodothyronine from thyroid hormone receptors in rat at 10 uM incubated for 180 mins by scintillation counting analysis relative to control
[5] = biological target: Alpha-2A adrenergic receptor (Homo sapiens) (UniProt P08913); experiment: Displacement of [3H]-RX821002 from human recombinant adrenergic alpha 2A receptor at 10 uM incubated for 60 mins by scintillation counting analysis relative to control
Alpha-2A adrenergic receptor (Homo sapiens), sequence (P08913 whole entry): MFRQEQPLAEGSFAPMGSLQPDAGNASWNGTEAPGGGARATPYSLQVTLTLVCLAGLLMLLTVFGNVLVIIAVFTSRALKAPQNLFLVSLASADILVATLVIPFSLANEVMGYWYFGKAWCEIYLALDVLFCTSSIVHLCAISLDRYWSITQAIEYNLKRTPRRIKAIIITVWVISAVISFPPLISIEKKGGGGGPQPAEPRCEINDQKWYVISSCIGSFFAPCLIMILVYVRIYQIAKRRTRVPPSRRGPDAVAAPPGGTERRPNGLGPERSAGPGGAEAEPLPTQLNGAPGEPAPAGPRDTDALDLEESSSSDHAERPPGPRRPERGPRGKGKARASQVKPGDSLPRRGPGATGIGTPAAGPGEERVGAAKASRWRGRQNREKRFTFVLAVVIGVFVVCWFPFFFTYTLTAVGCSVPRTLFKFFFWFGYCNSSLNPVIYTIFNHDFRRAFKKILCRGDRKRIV

[6] = biological target: Estrogen receptor (Homo sapiens) (UniProt P03372); experiment: Displacement of [3H]-estradiol from human recombinant Estrogen ERalpha receptor at 10 uM incubated for 120 mins by scintillation counting analysis relative to control
Estrogen receptor (Homo sapiens), sequence (P03372 whole entry): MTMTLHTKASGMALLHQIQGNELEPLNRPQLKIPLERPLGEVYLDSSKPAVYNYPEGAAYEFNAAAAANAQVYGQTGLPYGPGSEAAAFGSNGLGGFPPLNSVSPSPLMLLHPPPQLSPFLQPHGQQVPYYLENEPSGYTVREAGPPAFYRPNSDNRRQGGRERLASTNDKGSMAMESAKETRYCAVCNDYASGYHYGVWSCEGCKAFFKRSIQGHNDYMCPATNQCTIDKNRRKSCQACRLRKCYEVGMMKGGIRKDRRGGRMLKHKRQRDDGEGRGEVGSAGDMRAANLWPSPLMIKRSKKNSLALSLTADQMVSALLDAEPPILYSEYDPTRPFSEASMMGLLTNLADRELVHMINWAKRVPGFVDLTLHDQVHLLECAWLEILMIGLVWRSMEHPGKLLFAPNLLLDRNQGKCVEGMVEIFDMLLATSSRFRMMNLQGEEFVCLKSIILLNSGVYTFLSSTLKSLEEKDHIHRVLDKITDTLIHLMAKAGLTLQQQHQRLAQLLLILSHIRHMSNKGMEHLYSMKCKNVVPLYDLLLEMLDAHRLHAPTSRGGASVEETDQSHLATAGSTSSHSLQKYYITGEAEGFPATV

[7] = biological target: Delta-type opioid receptor (Homo sapiens) (UniProt P41143); experiment: Displacement of [3H]DADLE from human recombinant Delta opioid receptor at 10 uM after 60 mins by scintillation counting analysis relative to control
[8] = biological target: Neuronal acetylcholine receptor; alpha3/beta4 (Homo sapiens) (UniProt P30926+P32297); experiment: Displacement of [125I] epibatidine from human nicotinic acetylcholine receptor alpha3/beta4 at 10 uM incubated for 60 mins by scintillation counting analysis relative to control; format: protein-complex assay
[9] = biological target: B2 bradykinin receptor (Homo sapiens) (UniProt P30411); experiment: Displacement of [3H]bradykinin from human recombinant B2 receptor at 10 uM after 60 mins by scintillation counting analysis relative to control
[10] = biological target: Prostaglandin E2 receptor EP4 subtype (Homo sapiens) (UniProt P35408); experiment: Displacement of [3H]-Prostaglandin E2 from human recombinant prostanoid receptor EP4 at 10 uM incubated for 120 mins by scintillation counting analysis relative to control
Prostaglandin E2 receptor EP4 subtype (Homo sapiens), sequence (P35408 whole entry): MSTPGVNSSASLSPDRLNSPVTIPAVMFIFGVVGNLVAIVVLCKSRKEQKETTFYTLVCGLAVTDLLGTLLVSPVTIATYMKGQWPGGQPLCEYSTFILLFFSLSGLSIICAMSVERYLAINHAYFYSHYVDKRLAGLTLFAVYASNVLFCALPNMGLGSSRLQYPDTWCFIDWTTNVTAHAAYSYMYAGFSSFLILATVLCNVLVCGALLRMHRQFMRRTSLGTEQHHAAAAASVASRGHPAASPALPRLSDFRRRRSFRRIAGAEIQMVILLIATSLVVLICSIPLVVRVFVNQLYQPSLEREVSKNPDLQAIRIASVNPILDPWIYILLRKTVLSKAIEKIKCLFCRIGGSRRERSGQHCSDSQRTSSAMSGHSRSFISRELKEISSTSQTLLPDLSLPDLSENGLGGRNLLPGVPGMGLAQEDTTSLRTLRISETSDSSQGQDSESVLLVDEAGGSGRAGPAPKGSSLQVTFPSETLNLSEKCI

[11] = biological target: Metabotropic glutamate receptor 7 (Rattus norvegicus) (UniProt P35400); experiment: Positive allosteric modulation of rat mGlu7 expressed in HEK293 cells co- expressing GIRK assessed as potentiation of L-AP4-induced thallium flux incubated for 140 sec by FluoZin2-AM dye based fluorescence analysis relative to maximal induction of L-AP4; format: cell-based; details: filed as positive allosteric modulator
Metabotropic glutamate receptor 7 (Rattus norvegicus), sequence (P35400 whole entry): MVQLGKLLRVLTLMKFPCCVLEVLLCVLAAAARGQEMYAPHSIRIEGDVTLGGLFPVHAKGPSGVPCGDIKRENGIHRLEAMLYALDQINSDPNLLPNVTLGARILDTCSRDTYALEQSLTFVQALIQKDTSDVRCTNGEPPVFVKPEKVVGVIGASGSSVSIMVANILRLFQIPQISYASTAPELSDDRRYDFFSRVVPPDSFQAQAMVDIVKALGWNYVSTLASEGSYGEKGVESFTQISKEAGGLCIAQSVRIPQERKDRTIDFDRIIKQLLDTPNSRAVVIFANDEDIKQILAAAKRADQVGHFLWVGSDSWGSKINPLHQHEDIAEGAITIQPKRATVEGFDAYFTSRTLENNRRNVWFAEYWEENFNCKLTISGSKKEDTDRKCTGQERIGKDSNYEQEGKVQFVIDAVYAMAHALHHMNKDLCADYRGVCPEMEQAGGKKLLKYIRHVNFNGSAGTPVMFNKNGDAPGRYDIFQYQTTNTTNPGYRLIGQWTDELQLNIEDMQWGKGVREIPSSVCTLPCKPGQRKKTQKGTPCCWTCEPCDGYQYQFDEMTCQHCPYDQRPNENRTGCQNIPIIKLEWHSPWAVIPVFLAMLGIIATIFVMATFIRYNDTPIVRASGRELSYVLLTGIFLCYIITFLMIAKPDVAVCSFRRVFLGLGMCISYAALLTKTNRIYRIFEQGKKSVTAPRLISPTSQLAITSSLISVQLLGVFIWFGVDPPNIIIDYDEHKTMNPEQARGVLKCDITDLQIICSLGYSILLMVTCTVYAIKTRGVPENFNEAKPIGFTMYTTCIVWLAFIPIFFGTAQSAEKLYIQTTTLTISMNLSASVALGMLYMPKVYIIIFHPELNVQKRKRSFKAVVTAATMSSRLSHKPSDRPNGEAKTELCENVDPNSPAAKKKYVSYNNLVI

[12] = biological target: Muscarinic acetylcholine receptor M2 (Homo sapiens) (UniProt P08172); experiment: Displacement of [3H]AF-DX 384 from human recombinant M2 receptor at 10 uM after 60 mins by scintillation counting analysis relative to control
Muscarinic acetylcholine receptor M2 (Homo sapiens), sequence (P08172 whole entry): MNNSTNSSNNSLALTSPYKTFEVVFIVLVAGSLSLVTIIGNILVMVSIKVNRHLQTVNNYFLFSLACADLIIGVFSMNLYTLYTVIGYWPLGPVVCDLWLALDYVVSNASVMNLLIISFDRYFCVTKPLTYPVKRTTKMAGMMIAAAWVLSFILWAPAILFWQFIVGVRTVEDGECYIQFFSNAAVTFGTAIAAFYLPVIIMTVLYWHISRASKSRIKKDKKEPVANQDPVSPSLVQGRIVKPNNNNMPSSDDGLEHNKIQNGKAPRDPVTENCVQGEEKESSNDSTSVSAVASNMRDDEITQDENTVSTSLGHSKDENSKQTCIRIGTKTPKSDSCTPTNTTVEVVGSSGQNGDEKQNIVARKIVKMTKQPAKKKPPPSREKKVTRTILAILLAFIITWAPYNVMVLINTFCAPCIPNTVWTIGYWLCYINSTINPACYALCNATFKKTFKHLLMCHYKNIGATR

Rattus norvegicus [13] = organism: Rattus norvegicus; experiment: Displacement of [3H]-Muscimol from GABAA channel muscimol binding site in rat brain at 10 uM incubated for 10 mins by scintillation counting analysis relative to control; format: tissue-based
[14] = biological target: D(1A) dopamine receptor (Homo sapiens) (UniProt P21728); experiment: Displacement of [3H]-SCH 23390 from human recombinant dopamine D1 receptor at 10 uM by scintillation counting 60 mins analysis relative to control
[15] = biological target: Epidermal growth factor receptor (Homo sapiens) (UniProt P00533); experiment: Displacement of [125I]-EGF from human EGF receptor at 10 uM incubated for 60 mins by scintillation counting analysis relative to control
Epidermal growth factor receptor (Homo sapiens), sequence (P00533 whole entry): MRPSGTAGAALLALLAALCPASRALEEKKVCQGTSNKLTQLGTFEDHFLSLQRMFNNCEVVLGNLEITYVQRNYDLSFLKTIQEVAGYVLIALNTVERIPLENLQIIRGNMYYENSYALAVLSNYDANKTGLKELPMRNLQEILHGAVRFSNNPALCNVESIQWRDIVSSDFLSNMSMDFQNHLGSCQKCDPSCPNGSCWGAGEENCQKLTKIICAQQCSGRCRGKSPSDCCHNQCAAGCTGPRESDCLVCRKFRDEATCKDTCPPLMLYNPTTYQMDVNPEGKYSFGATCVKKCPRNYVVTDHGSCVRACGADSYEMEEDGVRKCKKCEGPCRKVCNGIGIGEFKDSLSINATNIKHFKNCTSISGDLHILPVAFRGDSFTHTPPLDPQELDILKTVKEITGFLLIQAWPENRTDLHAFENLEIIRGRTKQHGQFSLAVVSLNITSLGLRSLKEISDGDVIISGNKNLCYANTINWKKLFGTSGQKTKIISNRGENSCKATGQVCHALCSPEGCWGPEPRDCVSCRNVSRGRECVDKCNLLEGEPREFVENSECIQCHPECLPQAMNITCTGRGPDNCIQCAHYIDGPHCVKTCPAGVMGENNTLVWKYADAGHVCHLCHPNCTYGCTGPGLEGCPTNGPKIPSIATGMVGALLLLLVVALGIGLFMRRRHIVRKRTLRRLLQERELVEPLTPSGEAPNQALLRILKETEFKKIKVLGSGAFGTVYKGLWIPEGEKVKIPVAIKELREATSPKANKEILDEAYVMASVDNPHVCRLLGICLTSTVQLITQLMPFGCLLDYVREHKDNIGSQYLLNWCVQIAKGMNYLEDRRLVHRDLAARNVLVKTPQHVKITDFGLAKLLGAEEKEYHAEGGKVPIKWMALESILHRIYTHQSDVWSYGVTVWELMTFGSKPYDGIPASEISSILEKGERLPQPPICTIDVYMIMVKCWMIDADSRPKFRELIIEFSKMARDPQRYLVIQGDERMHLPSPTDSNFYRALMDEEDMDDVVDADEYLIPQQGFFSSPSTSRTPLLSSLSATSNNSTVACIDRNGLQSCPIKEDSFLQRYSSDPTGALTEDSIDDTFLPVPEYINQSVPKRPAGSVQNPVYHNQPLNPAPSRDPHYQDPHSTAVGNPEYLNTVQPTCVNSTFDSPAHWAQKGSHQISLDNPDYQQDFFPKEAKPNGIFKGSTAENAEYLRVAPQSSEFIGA

Rattus norvegicus [16] = organism: Rattus norvegicus; experiment: Displacement of [3H]-Diltiazem from L-type calcium channel benzothiazepine binding site in rat brain at 10 uM incubated for 180 mins by scintillation counting analysis relative to control; format: tissue-based
[17] = biological target: 5-hydroxytryptamine receptor 1A (Homo sapiens) (UniProt P08908); experiment: Displacement of [3H]8-OH-DPAT from recombinant human 5-HT1A receptor at 10 uM after 60 mins by scintillation counting analysis relative to control
5-hydroxytryptamine receptor 1A (Homo sapiens), sequence (P08908 whole entry): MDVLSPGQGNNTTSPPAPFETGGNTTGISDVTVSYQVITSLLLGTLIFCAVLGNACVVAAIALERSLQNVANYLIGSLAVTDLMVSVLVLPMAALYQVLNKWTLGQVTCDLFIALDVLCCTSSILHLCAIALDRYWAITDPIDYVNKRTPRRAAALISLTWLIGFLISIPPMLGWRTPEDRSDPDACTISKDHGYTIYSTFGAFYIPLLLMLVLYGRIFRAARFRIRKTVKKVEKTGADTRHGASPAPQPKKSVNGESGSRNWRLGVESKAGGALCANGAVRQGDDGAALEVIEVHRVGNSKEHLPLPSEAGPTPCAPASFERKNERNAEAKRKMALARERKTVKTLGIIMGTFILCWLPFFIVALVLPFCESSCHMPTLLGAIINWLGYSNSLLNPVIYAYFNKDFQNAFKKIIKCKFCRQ

[18] = biological target: Gamma-aminobutyric acid type B receptor subunit 1 (Homo sapiens) (UniProt Q9UBS5); experiment: Displacement of [3H]-CGP54626 from human recombinant GABAB1A channel at 10 uM incubated for 180 mins by scintillation counting analysis relative to control
Rattus norvegicus [19] = organism: Rattus norvegicus; experiment: Displacement of [125I]-Omega -conotoxin GIVA from N-type calcium channel in rat brain membrane at 10 uM incubated for 30 mins by scintillation counting analysis relative to control; format: cell membranes
[20] = biological target: P2X receptor (Rattus norvegicus) (UniProt P51579+P49653+P51578+Q64663+P47824+P51577+P49654); experiment: Displacement of [3H]alpha, beta-methylene ATP from P2X receptor in rat urinary bladder at 10 uM incubated for 120 mins by scintillation counting analysis relative to control
[21] = biological target: Androgen receptor (Homo sapiens) (UniProt P10275); experiment: Displacement of [3H]-methyltrienolone from human androgen receptor at 10 uM incubated for 1440 mins by scintillation counting analysis relative to control
[22] = biological target: Alpha-1A adrenergic receptor (Homo sapiens) (UniProt P35348); experiment: Displacement of [3H]-Prazosin from human recombinant adrenergic alpha 1A receptor at 10 uM incubated for 60 mins by scintillation counting analysis relative to control
[23] = biological target: Cysteinyl leukotriene receptor 1 (Homo sapiens) (UniProt Q9Y271); experiment: Displacement of [3H]-LTD4 from human recombinant CysLT1 Leukotriene receptor at 10 uM incubated for 60 mins by scintillation counting analysis relative to control
[24] = biological target: B1 bradykinin receptor (Homo sapiens) (UniProt P46663); experiment: Displacement of [3H]desArg10-KD from human recombinant Bradykinin B1 receptor at 10 uM incubated for 120 mins by scintillation counting analysis relative to control
Rattus norvegicus [25] = organism: Rattus norvegicus; experiment: Displacement of [3H]-MDL105519 from NMDA glutamate receptor glycine binding site in rat at 10 uM incubated for 30 mins by scintillation counting analysis relative to control
[26] = biological target: Metabotropic glutamate receptor 7 (Rattus norvegicus) (UniProt P35400); experiment: Positive allosteric modulation of rat mGlu7 receptor expressed in HEK293 cells co-expressing Gai5 assessed as potentiation of L-AP4-induced calcium mobilization preincubated for 140 secs and treated with EC20 L-AP4 for 125 secs and followed by subsequent addition of EC80 L-AP4 by Fluo-4-AM dye based fluorescence assay relative to maximal induction of L-AP4; format: functional, cell-based; details: filed as positive allosteric modulator, time 140.0 sec
[27] = biological target: Adenosine receptor A1 (Homo sapiens) (UniProt P30542); experiment: Displacement of [3H]-DPCPX from human recombinant adenosine A1 receptor at 10 uM after 60 mins by scintillation counting analysis relative to control
Rattus norvegicus [28] = organism: Rattus norvegicus; experiment: Displacement of [3H]-idazoxan from rat imidazoline I2 receptor at 10 uM incubated for 30 mins by scintillation counting analysis relative to control
Rattus norvegicus [29] = organism: Rattus norvegicus; experiment: Displacement of [3H]-TCP from NMDA glutamate receptor phencyclidine binding site in rat at 10 uM incubated for 45 mins by scintillation counting analysis relative to control
[30] = biological target: Endothelin receptor type B (Homo sapiens) (UniProt P24530); experiment: Displacement of [125I]-endothelin1 from human recombinant Endothelin ETB receptor cells at 10 uM incubated for 120 mins by scintillation counting analysis relative to control; format: cell-based
Endothelin receptor type B (Homo sapiens), sequence (P24530 whole entry): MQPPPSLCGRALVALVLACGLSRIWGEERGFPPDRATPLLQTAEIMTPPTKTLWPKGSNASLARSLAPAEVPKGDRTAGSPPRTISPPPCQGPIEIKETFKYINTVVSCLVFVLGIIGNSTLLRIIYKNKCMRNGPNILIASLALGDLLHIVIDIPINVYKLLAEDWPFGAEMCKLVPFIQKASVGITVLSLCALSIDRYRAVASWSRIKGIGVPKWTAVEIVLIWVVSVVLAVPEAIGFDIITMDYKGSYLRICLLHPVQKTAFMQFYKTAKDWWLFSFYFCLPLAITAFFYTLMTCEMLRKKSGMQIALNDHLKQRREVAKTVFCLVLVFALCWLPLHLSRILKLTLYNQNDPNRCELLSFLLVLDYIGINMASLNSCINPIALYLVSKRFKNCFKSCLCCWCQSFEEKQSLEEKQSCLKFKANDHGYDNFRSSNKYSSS

COc1cccc2c(N3CCN(c4ccccc4F)CC3)c(C#N)cnc12 was tested, and the inhibition (Rattus norvegicus [1]) was less than 50%, the inhibition [2] was less than 50% and the inhibition [3] was less than 50%. For the same compound, the inhibition (Rattus norvegicus [4]) was less than 50%, the inhibition [5] was less than 50% and the inhibition [6] was less than 50%. For the same compound, the inhibition [7] was less than 50%, the inhibition [8] was less than 50% and the inhibition [9] was less than 50%. It also gave an inhibition [10] of less than 50%, an Activity [11] of 51.3% and an inhibition [12] of less than 50%. The inhibition (Rattus norvegicus [13]) was less than 50%, the inhibition [14] was less than 50% and the inhibition [15] was less than 50%. The inhibition (Rattus norvegicus [16]) was less than 50%, the inhibition [17] was less than 50% and the inhibition [18] was less than 50%. The inhibition (Rattus norvegicus [19]) was less than 50%, the inhibition [20] was less than 50% and the inhibition [21] was less than 50%. It also gave an inhibition [22] of less than 50%, an inhibition [23] of less than 50% and an inhibition [24] of less than 50%. For the same compound, the inhibition (Rattus norvegicus [25]) was less than 50%, the Activity [26] was 85.1% and the Activity ([26]; tested as the 2H-labelled form) was 73%. It also gave an inhibition [27] of less than 50%, an inhibition (Rattus norvegicus [28]) of less than 50% and an inhibition (Rattus norvegicus [29]) of less than 50%. The inhibition [30] was less than 50%.

With COc1cc(F)cc2c(N3CCN(c4ccccc4F)CC3)c(C#N)cnc12 the inhibition (Rattus norvegicus [1]; tested as the 2H-labelled form) was less than 50%, the inhibition ([2]; tested as the 2H-labelled form) was less than 50% and the inhibition ([3]; tested as the 2H-labelled form) was less than 50%. For the same compound, the inhibition (Rattus norvegicus [4]; tested as the 2H-labelled form) was less than 50%, the inhibition ([5]; tested as the 2H-labelled form) was less than 50% and the inhibition ([6]; tested as the 2H-labelled form) was less than 50%. For the same compound, the inhibition ([7]; tested as the 2H-labelled form) was less than 50%, the inhibition ([8]; tested as the 2H-labelled form) was less than 50% and the inhibition ([9]; tested as the 2H-labelled form) was less than 50%. For the same compound, the inhibition ([10]; tested as the 2H-labelled form) was less than 50%, the Activity ([11]; tested as the 2H-labelled form) was 62.8% and the inhibition ([12]; tested as the 2H-labelled form) was less than 50%. For the same compound, the inhibition (Rattus norvegicus [13]; tested as the 2H-labelled form) was less than 50%, the inhibition ([14]; tested as the 2H-labelled form) was less than 50% and the inhibition ([15]; tested as the 2H-labelled form) was less than 50%. For the same compound, the inhibition (Rattus norvegicus [16]; tested as the 2H-labelled form) was less than 50%, the inhibition ([17]; tested as the 2H-labelled form) was less than 50% and the inhibition ([18]; tested as the 2H-labelled form) was less than 50%. The inhibition (Rattus norvegicus [19]; tested as the 2H-labelled form) was less than 50%, the inhibition ([20]; tested as the 2H-labelled form) was less than 50% and the inhibition ([21]; tested as the 2H-labelled form) was less than 50%. For the same compound, the inhibition ([22]; tested as the 2H-labelled form) was less than 50%, the inhibition ([23]; tested as the 2H-labelled form) was less than 50% and the inhibition ([24]; tested as the 2H-labelled form) was less than 50%. For the same compound, the inhibition (Rattus norvegicus [25]; tested as the 2H-labelled form) was less than 50%, the Activity [26] was 98% and the Activity ([26]; tested as the 2H-labelled form) was 98%. The inhibition ([27]; tested as the 2H-labelled form) was less than 50%, the inhibition (Rattus norvegicus [28]; tested as the 2H-labelled form) was less than 50% and the inhibition (Rattus norvegicus [29]; tested as the 2H-labelled form) was less than 50%. For the same compound, the inhibition ([30]; tested as the 2H-labelled form) was less than 50%.
